The record followed here is US20230114728A1 (Venatorx Pharmaceuticals, Inc., priority 2019, published 2023).

Structures are written as SMILES. ≈ marks a conversion by molar mass, not a printed value.

The subject of assay [1] is K. pneumoniae UMM producing SHV-5 and KPC-2. Nature of the assay: Broth microdilution MIC in CAMHB. It is filed as cell-based. The conditions noted are these: Klebsiella pneumoniae, read-out: Minimum Inhibitory Concentration, K. pneumoniae UMM. In short, it runs like this: (§1)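 Per CLSI broth microdilution, colonies were grown 3-5 h at 37° C in cation-adjusted Mueller Hinton broth, then diluted to a starting inoculum of 2-8×10^5 CFU/mL against 2-fold serial compound dilutions. Plates were incubated 16-20 h at 37° C, and MIC was read visually as the lowest concentration with no growth.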

The test system of assay [2] is K. pneumoniae 848844 producing SHV-11 and KPC-2. Description: Broth microdilution MIC in CAMHB. Type of assay: cell-based. The conditions noted are these: Klebsiella pneumoniae, read-out: Minimum Inhibitory Concentration, K. pneumoniae 848844. An outline of the steps: as §1
In general terms: Broth dilution looks for growth in wells or tubes with falling amounts of substance.

Another assay relates to A. baumannii ATCC 19606. Description: Broth microdilution MIC in CAMHB. Type of assay: cell-based. The conditions noted are these: Acinetobacter baumannii, ATCC19606; MHB; read-out: Minimum Inhibitory Concentration, A. baumannii ATCC 19606. In short, it runs like this:
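Hyper-permeable or efflux-deficient strains serve to probe outer-membrane penetration. Growth inhibition is scored visually after 16-20 h at 37° C in CAMHB, starting from 2-8×10^5 CFU/mL.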

In another assay the test system is P. aeruginosa ATCC 27853. Description: Broth microdilution MIC in CAMHB. Type of assay: cell-based. The conditions noted are these: Pseudomonas aeruginosa, ATCC27853; MHB; read-out: Minimum Inhibitory Concentration, P. aeruginosa ATCC 27853. An outline of the steps: as §1
In a further assay the test system is E. coli AG100. Nature of the assay: Broth microdilution MIC in CAMHB. Type of assay: cell-based. The settings on record: Escherichia coli; E. coli AG100 (wild-type parent); MHB; read-out: Minimum Inhibitory Concentration, E. coli AG100. An outline of the steps: as §1
The subject of assay [3] is P. aeruginosa (ΔmexAB-oprM). Nature of the assay: Broth microdilution MIC in CAMHB. It is filed as cell-based. The settings on record: Pseudomonas aeruginosa, read-out: Minimum Inhibitory Concentration, P. aeruginosa ΔmexAB-OprM. In short, it runs like this:
as §1

The test system of a further assay is E. coli AG100A. Nature of the assay: Broth microdilution MIC in CAMHB. Type of assay: cell-based. The conditions noted are these: Escherichia coli, read-out: Minimum Inhibitory Concentration, E. coli AG100A. An outline of the steps: as §1
The subject of a further assay is E. coli 901C. Description: Broth microdilution MIC in CAMHB. The conditions noted are these: Escherichia coli; E. coli 901C (hyper-permeable); MHB; read-out: Minimum Inhibitory Concentration, E. coli 901C. It is filed as cell-based. In short, it runs like this:
as §1

A further assay addresses T1, P. aeruginosa PBP3 (Pseudomonas aeruginosa, UniProt G3XD46).
T1 construct: made in house
Description: Bocillin-FL fluorescence polarization competition binding assay, P. aeruginosa PBP3. The conditions noted are these: fluorescence polarization competition binding assay using Bocillin-FL. In short, it runs like this: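 Binding of boronic acid inhibitors to purified Pseudomonas aeruginosa (PA01) PBP3 was measured by fluorescence polarization competition with Bocillin-FL, a fluorescent penicillin V. Reactions of 80 μl contained 0.75 μM PBP3 and 0.1 μM Bocillin-FL in 50 mM Hepes (pH 8.0), 300 mM NaCl and 5% (v/v) glycerol, in black 384-well plates. FP (Excitation 490 nm, Emission 520 nm) was read for up to 60 minutes. EC50 is the concentration that halves PBP-bound Bocillin-FL.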

T1 sequence (G3XD46 whole entry): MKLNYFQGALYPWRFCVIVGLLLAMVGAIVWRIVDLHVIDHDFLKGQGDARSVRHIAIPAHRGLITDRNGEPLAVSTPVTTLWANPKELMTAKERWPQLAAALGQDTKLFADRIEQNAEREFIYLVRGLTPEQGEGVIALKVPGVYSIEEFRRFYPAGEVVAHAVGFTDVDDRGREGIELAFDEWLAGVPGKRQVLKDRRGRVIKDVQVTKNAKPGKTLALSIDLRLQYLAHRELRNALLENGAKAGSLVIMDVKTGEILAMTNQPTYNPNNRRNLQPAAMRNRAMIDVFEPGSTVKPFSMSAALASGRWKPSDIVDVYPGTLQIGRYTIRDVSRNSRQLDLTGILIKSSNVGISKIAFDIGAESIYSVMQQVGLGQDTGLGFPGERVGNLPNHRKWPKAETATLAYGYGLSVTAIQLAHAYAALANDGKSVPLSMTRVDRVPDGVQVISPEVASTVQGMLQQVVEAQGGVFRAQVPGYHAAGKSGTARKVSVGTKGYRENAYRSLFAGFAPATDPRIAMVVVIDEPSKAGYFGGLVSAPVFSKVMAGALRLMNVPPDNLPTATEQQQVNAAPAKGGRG

`CCN1CCN(C(=O)NC(C(=O)N[C@H]2Cc3cccc(C(=O)O)c3OB2O)c2c(F)cc(O)cc2Cl)C(=O)C1=O` (stereo partly drawn) [Example 95, (3R)-3-(2-(2-chloro-6-fluoro-4-hydroxyphenyl)-2-(4-ethyl-2,3-dioxopiperazine-1-carboxamido)acetamido)-2-hydroxy-3,4-dihydro-2H-benzo[e][1,2]oxaborinine-8-carboxylic acid]: the MIC in [1] was 8 to 16 µg/mL (≈ 13.9 to 27.7 µM); in [2] it was 32 to 64 µg/mL (≈ 55.5 to 111 µM); with A. baumannii ATCC 19606, more than 128 µg/mL; with P. aeruginosa ATCC 27853, more than 128 µg/mL; in the assay with E. coli AG100, 8 to 16 µg/mL (≈ 13.9 to 27.7 µM); in assay [3] it was 32 to 64 µg/mL (≈ 55.5 to 111 µM). Moreover, the MIC is 0.5 to 1 µg/mL (≈ 0.867 to 1.73 µM) in the assay on E. coli AG100A and less than 0.25 µg/mL in the assay with E. coli 901C. Also, the “P. aeruginosa PBP3 Potency” value on P. aeruginosa PBP3 was “D (D represents a potency <10 μM)”.
On to `CCN1CCN(C(=O)NC(C(=O)N[C@H]2Cc3cccc(C(=O)O)c3OB2O)c2cccc(NC(=O)c3cncnc3)c2)C(=O)C1=O` (stereo partly drawn) [Example 96, (3R)-3-(2-(4-ethyl-2,3-dioxopiperazine-1-carboxamido)-2-(3-(pyrimidine-5-carboxamido)phenyl)acetamido)-2-hydroxy-3,4-dihydro-2H-benzo[e][1,2]oxaborinine-8-carboxylic acid], for which the MIC in assay [1] is more than 128 µg/mL; in assay [2], more than 128 µg/mL; in the assay on A. baumannii ATCC 19606 it was more than 128 µg/mL; with P. aeruginosa ATCC 27853 it was more than 128 µg/mL; with E. coli AG100 it was more than 128 µg/mL; in [3], 32 to 64 µg/mL (≈ 50.8 to 102 µM). For the same compound, the MIC was 8 to 16 µg/mL (≈ 12.7 to 25.4 µM) in the assay on E. coli AG100A and 0.5 to 1 µg/mL (≈ 0.794 to 1.59 µM) in the assay on E. coli 901C. Also, on P. aeruginosa PBP3, the “P. aeruginosa PBP3 Potency” value is “D (D represents a potency <10 μM)”.
For `CCN1CCN(C(=O)NC(C(=O)N[C@H]2Cc3cccc(C(=O)O)c3OB2O)c2cccc(NC(=O)c3cccnc3)c2)C(=O)C1=O` (stereo partly drawn) [Example 97, (3R)-3-(2-(4-ethyl-2,3-dioxopiperazine-1-carboxamido)-2-(3-(nicotinamido)phenyl)acetamido)-2-hydroxy-3,4-dihydro-2H-benzo[e][1,2]oxaborinine-8-carboxylic acid], the MIC in assay [1] was more than 128 µg/mL; in assay [2], more than 128 µg/mL; with A. baumannii ATCC 19606 it was more than 128 µg/mL; with P. aeruginosa ATCC 27853 it was more than 128 µg/mL; with E. coli AG100 it was more than 128 µg/mL; in assay [3], 32 to 64 µg/mL (≈ 50.9 to 102 µM). Moreover, the MIC in the assay with E. coli AG100A lay within 8 to 16 µg/mL (≈ 12.7 to 25.5 µM); in the assay on E. coli 901C it was 0.5 to 1 µg/mL (≈ 0.796 to 1.59 µM). In addition, the “P. aeruginosa PBP3 Potency” value on P. aeruginosa PBP3 is “D (D represents a potency <10 μM)”.
Turning to `CCN1CCN(C(=O)NC(C(=O)N[C@H]2Cc3cccc(C(=O)O)c3OB2O)c2cccc(NS(N)(=O)=O)c2)C(=O)C1=O` (stereo partly drawn) [Example 98, (3R)-3-(2-(4-ethyl-2,3-dioxopiperazine-1-carboxamido)-2-(3-(sulfamoylamino)phenyl)acetamido)-2-hydroxy-3,4-dihydro-2H-benzo[e][1,2]oxaborinine-8-carboxylic acid], the MIC is 32 to 64 µg/mL (≈ 53.1 to 106 µM) in assay [1]; more than 128 µg/mL in [2]; more than 128 µg/mL in the assay on A. baumannii ATCC 19606; more than 128 µg/mL with P. aeruginosa ATCC 27853; 8 to 16 µg/mL (≈ 13.3 to 26.6 µM) in the assay on E. coli AG100; 8 to 16 µg/mL (≈ 13.3 to 26.6 µM) in assay [3]. For the same compound, the MIC in the assay with E. coli AG100A was 0.5 to 1 µg/mL (≈ 0.83 to 1.66 µM); in the assay with E. coli 901C, less than 0.25 µg/mL. For the same compound, on P. aeruginosa PBP3, the “P. aeruginosa PBP3 Potency” value is given as “D (D represents a potency <10 μM)”.
Consider `CCN1CCN(C(=O)NC(C(=O)N[C@H]2Cc3cccc(C(=O)O)c3OB2O)c2cccc(S(N)(=O)=O)c2)C(=O)C1=O` (stereo partly drawn) [Example 99, (3R)-3-(2-(4-ethyl-2,3-dioxopiperazine-1-carboxamido)-2-(3-sulfamoylphenyl)acetamido)-2-hydroxy-3,4-dihydro-2H-benzo[e][1,2]oxaborinine-8-carboxylic acid], for which the MIC in assay [1] was 32 to 64 µg/mL (≈ 54.5 to 109 µM); in [2] it was 32 to 64 µg/mL (≈ 54.5 to 109 µM); in the assay with A. baumannii ATCC 19606, more than 128 µg/mL; in the assay on P. aeruginosa ATCC 27853, more than 128 µg/mL; in the assay with E. coli AG100, 32 to 64 µg/mL (≈ 54.5 to 109 µM); in [3] it was 8 to 16 µg/mL (≈ 13.6 to 27.2 µM). The MIC with E. coli AG100A is 2 to 4 µg/mL (≈ 3.4 to 6.81 µM); in the assay on E. coli 901C it was less than 0.25 µg/mL. Further, the “P. aeruginosa PBP3 Potency” value on P. aeruginosa PBP3 is reported as “D (D represents a potency <10 μM)”.
